Entries after “also recorded” stand apart in the source; their conditions may differ. Counter-ions that a name gives are not always drawn.
How the values were obtained:
[1] = Solubility of the hydrogen sulfate salt in solvents; assay type: physicochemical
carotid body = assay: Carotid sinus nerve transection (CSNTx) in urethane anesthetized rats, minute volume; assay type: in vivo, adult male Sprague Dawley rats
Experimental: The objective of this study was to assess the role of carotid body sinus nerve activity on ventilation, as measured by minute volume, in rats treated with compounds of this invention, such as Compound 5b, versus a saline-treated group. Urethane anesthetized adult male Sprague Dawley rats and tracheal spirometry (pneumotachometry) techniques were used (Example 56). Vehicle (saline) and Compound 5b (0.1 and 0.3 mg/kg) were administered as IV boluses to 5 rats. The carotid sinus nerves were isolated in the neck and transected thereby denervating both carotid bodies. Vehicle and Compound 5b were re-administered IV. Animals were exposed to low inspired O2 (hypoxia) to confirm functionally complete nerve transections. The change in minute volume ΔVE (% of baseline above baseline) in response to saline/Compound 5b before and after carotid body denervation was measured.

[2] = system: rats chronically treated with morphine; assay: Apnea, sleep architecture and ventilatory response in rats chronically treated with morphine; assay type: in vivo, Adult male lean Zucker rats; details: 7 mg/kg PO, versus vehicle
Experimental: The objective of this study was to quantify the effects of select compounds of this invention on apnea, ventilation and sleep structure in a rat model. The study consisted of two treatment conditions: (1) chronic morphine and test compound, such as Compound 5b administered orally (7 mg/kg, PO), and (2) chronic morphine and oral vehicle. Adult male lean Zucker rats were anesthetized for electroencephalogram (EEG) and electromyogram (EMG) telemeter implantation. At least 1 week was permitted post-surgery before animals were used further. Morphine sulfate was added to the drinking water of singly housed rats beginning with 0.1 mg/ml morphine and increasing the concentration in increments so that a final concentration of 0.6 mg/ml was achieved within 2 weeks. All respiratory measurements were made while animals were unrestrained in whole-body plethysmography chambers to permit animals to sleep and move freely. To avoid eliciting withdrawal, morphine water was continuously available during each plethysmography experiment. Minute volume and the number of central sleep apneas (CSA) were measured during all treatment conditions. A period of at least 1 to 1.5 h was permitted for animals to acclimate to the chamber before data collection began. The biopotential telemeters and their receivers were placed directly under the plethysmographic chambers and were used to continuously to capture EEG, EMG, and body temperature signals. Only data collected between the hours of 10 am to 4:30 pm were used in the final analysis to control for the effects of circadian rhythm on breathing.
Compound 5b (7 mg/kg) or an equivalent volume of vehicle was administered via an oral gavage tube at 12 pm. Data collected between 10 am and 12 pm represented baseline (pre-drug) conditions. Data collected between 12 pm and 4:30 pm represented post-drug conditions. Analyses of the EEG and EMG waveforms for the purpose of staging sleep-wake behavior in rats as awake, NREM sleep, and REM sleep were based on previous sleep studies involving rodents. Central apneas were defined as a respiratory cycle period that was more than or equal to twice the average cycle period during baseline recordings, which is consistent with how others have defined central apneas in rodents. Percent time in each sleep-wake state, minute volume, and central sleep apnea counts were compared between treatment groups using a two-way ANOVA (factors: drug treatment and time). Breathing data during wakefulness was not analyzed because movement prevents measurement of accurate volumes when using whole-body plethysmography. When differences were detected with ANOVA, Student-Neuman-Keuls post hoc tests were run for all main effects and interactions. Differences were considered significant when p<0.05. Values are expressed as means±SE.

rat = assay: Minute volume and mean blood pressure in the rat upon oral dosing (plethysmography, telemetry); assay type: in vivo, Male Sprague Dawley rats; details: 20 mg/kg PO
Experimental: Compounds were administered orally to rat and evaluated for effects on ventilatory and cardiovascular parameters.
Male Sprague Dawley rats (0.30-0.38 kg, n=4) were surgically implanted with ECG/blood pressure telemeters (Telemetry Research, Inc., Auckland, New Zweland) prior to data collection. The animals were acclimated to plethysmography chambers for a minimum period of 60 minutes. After this time, test compound (20 mg/kg, PO) or vehicle (0.9% saline) was administered by oral gavage. Respiratory and cardiovascular data were collected immediately thereafter for a period of 3 h using plethysmography (Buxco, Inc.) and telemetry (LabChart data acquisition software, AD instruments, Inc.). Each rat received test compound and vehicle during the course of the study and thus each animal served as its own control. Vehicle effects were subtracted from drug response (Drug-Veh) and the difference was reported as a mean percent (%) change over time±SE.

anesthetized rats = assay: Anesthetized rat spirometry screening assay (respiratory rate, tidal volume, minute volume; IV bolus); assay type: in vivo; details: 0.3 mg/kg IV bolus
Text: Anesthetized rats provide a quick method of screening compounds for respiratory and cardiovascular activity. In contrast to the conscious rat model, this model offers an experimental set up with less variation in the baseline cardiovascular and respiratory measures. Compounds screened in this assay may be examined in a conscious rat model.
Rats were initially anesthetized with 3% isoflurane (inhaled) and femoral artery and vein cannulas were surgically inserted. Once cannulated, the rats were transitioned to urethane anesthesia (1.5 g/kg; i.v.) and a tracheal cut-down was performed. After placing the tracheal cannula, it was connected to a pneumotach to record respiratory airflow from which respiratory rate (RR), tidal volume (VT), and their product minute volume were derived. After the surgical preparation was complete, animals were allowed to stabilize for 30 minutes while respiratory rate, tidal volume, minute volume, blood pressure and heart rate were recorded continuously. Arterial blood gases (ABG) were obtained from arterial blood collected from the femoral artery. ABG measurements were taken before and 6 minutes after vehicle and each dose of compound administered. Compounds being screened were administered via bolus injections through the venous cannula followed by a saline flush (total time of administration is approximately 30 seconds), and the animal was monitored for at least 6 minutes for changes in cardiovascular efforts. Compounds were prepared in formulations identified to ensure optimal solubility. As such, vehicle controls were matched for the formulation of each compound tested. Dosing of the compound being screened was 0.1 and 0.3 mg/kg. The next dose was not administered until all cardiovascular and respiratory measures had returned to baseline levels. The positive control compounds used were N-[4,6-di-(n-propylamino)-[1,3,5]triazin-2-yl]-O,N-dimethyl-hydroxylamine or N-[2,6-di-(n-propylamino)-[1,3]pyrimidin-4-yl]-O,N-dimethyl-hydroxylamine, both administered at the end of each screening experiment (0.3 mg/kg dose) to validate the experiment and also to serve as a measure with which the compound being screened could be compared.
Data were analyzed by collecting cardiovascular and respiratory data in 30 second averages (BINs). Data were plotted 2 minutes before challenge and then 6 minutes after challenge.
FIGS. 2A-2F summarize the effects of individual compounds on peak minute ventilation (increase in VE), overall increase in 2 minute area under the curve (AUC) which is a cumulative measure of effect, along with compound stability (half-life) in rat and human microsomes.

[3] = Solubility of cyanuric chloride in various solvents; assay type: physicochemical; details: 10 g in 50 mL, sonicated 1 h
Experimental: The solubility of cyanuric chloride was examined as a way to limit its reactivity and the formation of undesired by-products. Cyanuric chloride (10 g) was mixed with 50 mL of indicated solvent (Table 22) and sonicated for 1 h with occasional swirling. If solid material remained as a suspension, it was filtered off and weighed.

Work on `C#CCNc1nc(N(C)OC)c2cc[nH]c2n1.Cl` yielded a melting point of 182 to 184 °C.

Compound `C#CCN(OC)c1nc(NCCC)nc(NCCC)n1.Cl` has a melting point of 110 to 113 °C.

In the case of `C#CCON(C)c1nc(NCCC)nc(NCCC)n1.Cl`, the melting point was 105 to 107 °C.

`C#CCNc1nc(NCCC)nc(N(C)OCC#C)n1.Cl` showed a melting point of 84 to 86 °C.

In the case of `C#CCNc1nc(NCCC)nc(N(C)OC)n1`, the melting point was 79 to 81 °C.

`C#CCNc1nc(NCCC)nc(N(C)OC)n1.O=C(O)/C=C\C(=O)O` gave a melting point of 123 to 125 °C.

Work on `C#CCNc1nc(NCCC)nc(N(C)OC)n1.O=C(O)CC(=O)O` yielded a melting point of 113 to 115 °C.

`C#CCNc1nc(NCCC)nc(N(C)OC)n1.O=C(O)/C=C/C(=O)O` gave a melting point of 153 to 155 °C.

For `C#CCNc1nc(NC2CCC2)nc(N(C)OC)n1.Cl`, the melting point was 105 to 107 °C.

For `C#CCNc1nc(NCCC)nc(N(C)OC)n1` [Compound 5b, O,N-Dimethyl-N-[4-(n-propylamino)-6-(prop-2-ynylamino)-[1,3,5]triazin-2-yl]-hydroxylamine hydrogen sulfate], the “solubility in MeOH” value ([1]; MeOH) was “freely soluble”, the solubility in water ([1]; water) was “freely soluble” and the “minute volume prior to carotid body denervation” value (carotid body; 0.1 and 0.3 mg/kg IV bolus) was “dose-dependently increased minute volume”. The “ventilatory response after carotid sinus nerve transection” value (carotid body; 0.1 and 0.3 mg/kg IV bolus) was “completely abolished the ventilatory response”, the “ventilatory response after SHAM surgery” value (carotid body; IV bolus) was “no effect on the ventilatory response” and the “central apneas during NREM sleep, percent change from baseline (pre-treatment)” value [2] was “percent change (decrease) in apnea frequency was present”. For the same compound, the “NREM minute volume (VE)” value ([2]; hydrogen sulfate) was “no statistically significant effects; also recorded: trend for an initial increase in minute volume between 0 to 60 min post-dose; also recorded: no discernible effect”, the REM minute volume ([2]; hydrogen sulfate) was “no visible effects” and the “frequency of central apneas during NREM sleep” value ([2]; hydrogen sulfate) was “decreased apnea frequency at 120 min and 150 min post-gavage compared to vehicle; also recorded: decreased apnea frequency during NREM sleep compared to vehicle and the pre-treatment (baseline) values; also recorded: significantly reduces”. The “frequency of central apneas during REM sleep” value ([2]; hydrogen sulfate) was “did not visibly alter; also recorded: no visible effect; also recorded: does not reduce”, the “duration of the increase in minute ventilation” value (shortened to “duration of the increase”) (rat) was 120 min and the “increase in minute ventilation compared to baseline” value (rat) was “approximately 50%”. For the same compound, the “effect on mean blood pressure” value (rat; during the period of increased ventilation) was “no significant effect”.

With `C#CCNc1nc(NC)nc(NCCC)n1.Cl` [Compound 7a, N-Methyl-N′-n-propyl-N″-prop-2-ynyl-[1,3,5]triazine-2,4,6-triamine hydrochloride] the “duration of the increase” value (anesthetized rats) was “approximately 2 minutes”, the “increase in minute ventilation above baseline values” (anesthetized rats) was “up to 85%” and the “increase in respiratory rate” value (anesthetized rats) was “up to 46%”. For the same compound, the “increase in tidal volume” value (anesthetized rats) was “up to 27%”.

For `C#CCNc1nc(NCCC)nc(N(Cc2ccc(F)cc2)OC)n1` [Compound 9a, N-(4-Fluorobenzyl)-O-methyl-N-[4-(n-propylamino)-6-(prop-2-ynylamino)-[[1,3,5]triazin-2-yl]-hydroxylamine hydrochloride], the “duration of the increase” value (anesthetized rats) was “approximately 2 minutes”, the “increase in minute ventilation above baseline values” (anesthetized rats) was “up to 110%” and the “increase in respiratory rate” value (anesthetized rats) was “up to 24%”. For the same compound, the “increase in tidal volume” value (anesthetized rats) was “up to 72%”.

With `C#CCNc1nc(N)nc(N(C)OC)n1` [Compound 132, N-(4-Amino-6-prop-2-ynylamino-[1,3,5]triazin-2-yl)-O,N-dimethyl-hydroxylamine] the melting point was 172 to 174 °C.

For `Clc1nc(Cl)nc(Cl)n1` [cyanuric chloride], the “Solubility of cyanuric chloride” value ([3]; Acetone, 0 °C) was “partial crystallization”, the “Solubility of cyanuric chloride” value ([3]; Acetone, r.t.) was “soluble” and the “Solubility of cyanuric chloride” value ([3]; DMAc, 0 °C) was “soluble”. The “Solubility of cyanuric chloride” value ([3]; DMAc, r.t.) was “soluble”, the “Solubility of cyanuric chloride” value ([3]; DMF, 0 °C) was “decomposition” and the “Solubility of cyanuric chloride” value ([3]; DMF, r.t.) was “decomposition”. The “Solubility of cyanuric chloride” value ([3]; DMSO, 0 °C) was “decomposition”, the “Solubility of cyanuric chloride” value ([3]; DMSO, r.t.) was “decomposition” and the “Solubility of cyanuric chloride” value ([3]; Dioxane, 0 °C) was “soluble”. For the same compound, the “Solubility of cyanuric chloride” value ([3]; Dioxane, r.t.) was “soluble”, the “Solubility of cyanuric chloride” value ([3]; IPA, 0 °C) was “insoluble” and the “Solubility of cyanuric chloride” value ([3]; MeCN, 0 °C) was “insoluble”. The “Solubility of cyanuric chloride” value ([3]; MeCN, r.t.) was 150 µg/mL, the “Solubility of cyanuric chloride” value ([3]; THF, 0 °C) was “soluble” and the “Solubility of cyanuric chloride” value ([3]; THF, r.t.) was “soluble”. The “Solubility of cyanuric chloride” value ([3]; Toluene, 0 °C) was “soluble” and the “Solubility of cyanuric chloride” value ([3]; Toluene, r.t.) was “soluble”.

From US20150291597A1, “NOVEL ORALLY BIOAVAILABLE BREATHING CONTROL MODULATING COMPOUNDS, AND METHODS OF USING SAME” (Galleon Pharmaceuticals, Inc., priority 2012, published 2015)
